Structures can show the parent of a compound that is named as a salt.
Tests used:
[1] = target: T1, human vasopressin V1b receptor (Homo sapiens, UniProt P47901); assay: biochemical
T1 sequence (P47901 1-424): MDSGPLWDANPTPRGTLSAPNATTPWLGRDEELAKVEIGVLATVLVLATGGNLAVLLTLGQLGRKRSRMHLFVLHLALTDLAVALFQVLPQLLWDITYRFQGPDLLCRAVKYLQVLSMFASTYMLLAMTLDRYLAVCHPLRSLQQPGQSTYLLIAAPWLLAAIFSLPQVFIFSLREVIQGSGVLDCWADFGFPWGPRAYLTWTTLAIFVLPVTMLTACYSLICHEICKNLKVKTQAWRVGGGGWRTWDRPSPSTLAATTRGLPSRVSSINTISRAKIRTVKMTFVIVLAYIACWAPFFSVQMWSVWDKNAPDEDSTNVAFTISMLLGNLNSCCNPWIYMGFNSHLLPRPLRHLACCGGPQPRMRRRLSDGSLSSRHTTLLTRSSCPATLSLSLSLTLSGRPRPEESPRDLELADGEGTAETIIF

[2] = target: human vasopressin V1a receptor (Homo sapiens, UniProt P37288); assay: Vasopressin V1a receptor binding assay (125I-AVP displacement, CHO-K1 membranes); conditions: selectivity quotient, human V1a vs human V1b receptor binding
Chain of human vasopressin V1a receptor (P37288 whole entry): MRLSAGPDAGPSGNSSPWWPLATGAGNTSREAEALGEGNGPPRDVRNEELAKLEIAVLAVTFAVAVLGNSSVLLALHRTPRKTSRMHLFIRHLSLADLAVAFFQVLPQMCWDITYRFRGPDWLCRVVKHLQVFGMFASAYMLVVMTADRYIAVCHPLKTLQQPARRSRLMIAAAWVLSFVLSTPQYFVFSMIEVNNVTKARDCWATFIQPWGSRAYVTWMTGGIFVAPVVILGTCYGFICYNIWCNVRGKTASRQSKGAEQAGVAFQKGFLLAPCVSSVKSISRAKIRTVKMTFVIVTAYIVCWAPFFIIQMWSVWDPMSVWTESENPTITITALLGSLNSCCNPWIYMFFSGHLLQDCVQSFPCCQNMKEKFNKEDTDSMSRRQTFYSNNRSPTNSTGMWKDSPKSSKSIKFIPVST

Compound | Ki [1] [nM] | Ki(h-V1a)/Ki(h-V1b) [2]
CCOc1ncccc1[C@]1(NC(=O)N2CC(N3CCC(N4CCOCC4)CC3)C2)C(=O)N(S(=O)(=O)c2ccc(OC)cc2F)c2ccc(C#N)cc21 [Example 27, (S)—N-(5-cyano-3-(2-ethoxypyridin-3-yl)-1-((2-fluoro-4-methoxyphenyl)sulfonyl)-2-oxoindolin-3-yl)-3-(4-morpholinopiperidin-1-yl)azetidine-1-carboxamide] | < 1 | +++ (>75)
COc1cc(F)ccc1S(=O)(=O)N1C(=O)[C@@](NC(=O)N2CC(N3CCC(N(C)C4COC4)CC3)C2)(c2cccnc2OC)c2cc(C#N)ccc21 [Example 30, (S)—N-(5-Cyano-1-((4-fluoro-2-methoxyphenyl)sulfonyl)-3-(2-methoxypyridin-3-yl)-2-oxoindolin-3-yl)-3-(4-(methyl(oxetan-3-yl)amino)piperidin-1-yl)azetidine-1-carboxamide] | 1 to 10 | + (10-<25)
COc1ncccc1[C@]1(NC(=O)N2CC(N3CCC(N(C)C4COC4)CC3)C2)C(=O)N(S(=O)(=O)c2ccc(F)cc2)c2ccc(C#N)cc21 [Example 31, (S)—N-(5-Cyano-1-((4-fluorophenyl)sulfonyl)-3-(2-methoxypyridin-3-yl)-2-oxoindolin-3-yl)-3-(4-(methyl(oxetan-3-yl)amino)piperidin-1-yl)azetidine-1-carboxamide] | 1 to 10 | + (10-<25)
COc1ncccc1[C@]1(NC(=O)N2CC(N3CCC(N(C)C4COC4)CC3)C2)C(=O)N(S(=O)(=O)c2ccc(F)cc2F)c2ccc(C#N)cc21 [Example 33, (S)—N-(5-Cyano-1-((2,4-difluorophenyl)sulfonyl)-3-(2-methoxypyridin-3-yl)-2-oxoindolin-3-yl)-3-(4-(methyl(oxetan-3-yl)amino)piperidin-1-yl)azetidine-1-carboxamide] | 10 to 100 | + (10-<25)
COc1ccc(S(=O)(=O)N2C(=O)[C@@](NC(=O)N3CC(N4CCC(N(C)C5COC5)CC4)C3)(c3cccnc3OC)c3cc(C#N)ccc32)cc1 [Example 35, (S)—N-(5-cyano-1-((4-methoxyphenyl)sulfonyl)-3-(2-methoxypyridin-3-yl)-2-oxoindolin-3-yl)-3-(4-(methyl(oxetan-3-yl)amino)piperidin-1-yl)azetidine-1-carboxamide] | 1 to 10 | ++ (25-75)
CCOc1ncccc1[C@]1(NC(=O)N2CC(N3CCC(N4CCOCC4)CC3)C2)C(=O)N(S(=O)(=O)c2ccc(OC)cn2)c2ccc(C#N)cc21 [Example 36, (S)—N-(5-Cyano-3-(2-ethoxypyridin-3-yl)-1-((5-methoxypyridin-2-yl)sulfonyl)-2-oxoindolin-3-yl)-3-(4-morpholinopiperidin-1-yl)azetidine-1-carboxamide×TFA] | 1 to 10 | + (10-<25)
COc1ccc(S(=O)(=O)N2C(=O)[C@@](NC(=O)N3CC(N4CCC(N(C(C)C)C5COC5)CC4)C3)(c3cccnc3OC)c3cc(C#N)ccc32)c(OC)c1 [Example 38, (S)—N-(5-Cyano-1-((2,4-dimethoxyphenyl)sulfonyl)-3-(2-methoxypyridin-3-yl)-2-oxoindolin-3-yl)-3-(4-(isopropyl(oxetan-3-yl)amino)piperidin-1-yl)azetidine-1-carboxamide] | 10 to 100 | + (10-<25)
CCOc1ncccc1[C@]1(NC(=O)N2CC(N3CCC(N4CCC(F)(F)CC4)CC3)C2)C(=O)N(S(=O)(=O)c2ccc(OC)cc2OC)c2ccc(C#N)cc21 [Example 40, (S)—N-(5-Cyano-1-((2,4-dimethoxyphenyl)sulfonyl)-3-(2-ethoxypyridin-3-yl)-2-oxoindolin-3-yl)-3-(4,4-difluoro-[1,4′-bipiperidin]-1′-yl)azetidine-1-carboxamide] | < 1 | +++ (>75)
CCOc1ncccc1[C@]1(NC(=O)N2CC(N3CCC(N4CC(OC)C4)CC3)C2)C(=O)N(S(=O)(=O)c2ccc(OC)cc2OC)c2ccc(C#N)cc21 [Example 41, (S)—N-(5-Cyano-1-((2,4-dimethoxyphenyl)sulfonyl)-3-(2-ethoxypyridin-3-yl)-2-oxoindolin-3-yl)-3-(4-(3-methoxyazetidin-1-yl)piperidin-1-yl)azetidine-1-carboxamide] | 1 to 10 | +++ (>75)
CCOc1ncccc1[C@]1(NC(=O)N2CC(N3CCC(N4CCC(OC)CC4)CC3)C2)C(=O)N(S(=O)(=O)c2ccc(OC)cc2OC)c2ccc(C#N)cc21 [Example 42, (S)—N-(5-Cyano-1-((2,4-dimethoxyphenyl)sulfonyl)-3-(2-ethoxypyridin-3-yl)-2-oxoindolin-3-yl)-3-(4-methoxy-[1,4′-bipiperidin]-1′-yl)azetidine-1-carboxamide] | 1 to 10 | +++ (>75)
CCOc1ncccc1[C@]1(NC(=O)N2CC(N3CCC(N4CC(O)C4)CC3)C2)C(=O)N(S(=O)(=O)c2ccc(OC)cc2OC)c2ccc(C#N)cc21 [Example 43, (S)—N-(5-Cyano-1-((2,4-dimethoxyphenyl)sulfonyl)-3-(2-ethoxypyridin-3-yl)-2-oxoindolin-3-yl)-3-(4-(3-hydroxyazetidin-1-yl)piperidin-1-yl)azetidine-1-carboxamide] | 1 to 10 | +++ (>75)
CCOc1ncccc1[C@]1(NC(=O)N2CC(N3CCC(N4CCC(O)CC4)CC3)C2)C(=O)N(S(=O)(=O)c2ccc(OC)cc2OC)c2ccc(C#N)cc21 [Example 44, (S)—N-(5-Cyano-1-((2,4-dimethoxyphenyl)sulfonyl)-3-(2-ethoxypyridin-3-yl)-2-oxoindolin-3-yl)-3-(4-hydroxy-[1,4′-bipiperidin]-1′-yl)azetidine-1-carboxamide] | < 1 | +++ (>75)

Continued, values first:

Ki [1] [nM] | Ki(h-V1a)/Ki(h-V1b) [2] | Compound
1 to 10 | +++ (>75) | CCOc1ncccc1[C@]1(NC(=O)N2CC(N3CCC(N4CCOCC4)CC3)C2)C(=O)N(S(=O)(=O)c2cc(F)c(OC)cc2OC)c2ccc(C#N)cc21 [Example 24, (S)—N-(5-Cyano-3-(2-ethoxypyridin-3-yl)-1-((5-fluoro-2,4-dimethoxyphenyl)sulfonyl)-2-oxoindolin-3-yl)-3-(4-morpholinopiperidin-1-yl)azetidine-1-carboxamide]
< 1 | ++ (25-75) | CCOc1ncccc1[C@]1(NC(=O)N2CC(N3CCC(N4CCOCC4)CC3)C2)C(=O)N(S(=O)(=O)c2ccc(OC)cc2)c2ccc(C#N)cc21 [Example 25, (S)—N-(5-Cyano-3-(2-ethoxypyridin-3-yl)-1-((4-methoxyphenyl)sulfonyl)-2-oxoindolin-3-yl)-3-(4-morpholinopiperidin-1-yl)azetidine-1-carboxamide]
1 to 10 | +++ (>75) | CCOc1ncccc1[C@]1(NC(=O)N2CC(N3CCC(N4CCOCC4)CC3)C2)C(=O)N(S(=O)(=O)c2ccc(F)cc2OC)c2ccc(C#N)cc21 [Example 28, (S)—N-(5-cyano-3-(2-ethoxypyridin-3-yl)-1-((4-fluoro-2-methoxyphenyl)sulfonyl)-2-oxoindolin-3-yl)-3-(4-morpholinopiperidin-1-yl)azetidine-1-carboxamide]
1 to 10 | + (10-<25) | COc1ccccc1S(=O)(=O)N1C(=O)[C@@](NC(=O)N2CC(N3CCC(N(C)C4COC4)CC3)C2)(c2cccnc2OC)c2cc(C#N)ccc21 [Example 29, (S)—N-(5-Cyano-1-((2-methoxyphenyl)sulfonyl)-3-(2-methoxypyridin-3-yl)-2-oxoindolin-3-yl)-3-(4-(methyl(oxetan-3-yl)amino)piperidin-1-yl)azetidine-1-carboxamide]
1 to 10 | + (10-<25) | COc1ccc(S(=O)(=O)N2C(=O)[C@@](NC(=O)N3CC(N4CCC(N(C)C5COC5)CC4)C3)(c3cccnc3OC)c3cc(C#N)ccc32)c(F)c1 [Example 32, (S)—N-(5-Cyano-1-((2-fluoro-4-methoxyphenyl)sulfonyl)-3-(2-methoxypyridin-3-yl)-2-oxoindolin-3-yl)-3-(4-(methyl(oxetan-3-yl)amino)piperidin-1-yl)azetidine-1-carboxamide]
1 to 10 | +++ (>75) | CCOc1ncccc1[C@]1(NC(=O)N2CC(N3CCC(N4CCOCC4)CC3)C2)C(=O)N(S(=O)(=O)c2ccccc2OC)c2ccc(C#N)cc21 [Example 37, (S)—N-(5-Cyano-3-(2-ethoxypyridin-3-yl)-1-((2-methoxyphenyl)sulfonyl)-2-oxoindolin-3-yl)-3-(4-morpholinopiperidin-1-yl)azetidine-1-carboxamide]
10 to 100 | +++ (>75) | CCOc1ncccc1[C@]1(NC(=O)N2CC(N3CCC(N4CC(F)(F)C4)CC3)C2)C(=O)N(S(=O)(=O)c2ccc(OC)cc2OC)c2ccc(C#N)cc21 [Example 39, (S)—N-(5-Cyano-1-((2,4-dimethoxyphenyl)sulfonyl)-3-(2-ethoxypyridin-3-yl)-2-oxoindolin-3-yl)-3-(4-(3,3-difluoroazetidin-1-yl)piperidin-1-yl)azetidine-1-carboxamide]
< 1 | + (10-<25) | COc1ccc(S(=O)(=O)N2C(=O)[C@@](NC(=O)N3CC(N4CCC(N5CCOCC5)CC4)C3)(c3cc(OC)ccc3OC)c3cc(C#N)ccc32)c(OC)c1 [Example 45, (S)—N-(5-Cyano-3-(2,5-dimethoxyphenyl)-1-((2,4-dimethoxyphenyl)sulfonyl)-2-oxoindolin-3-yl)-3-(4-morpholinopiperidin-1-yl)azetidine-1-carboxamide]
